These results are taken from patent US20160067221A1, “USE OF ERGOTHIONEINE FOR INDUCING ACTIVITY OF NRF2 IN CELL” (China Medical University, priority 2014, published 2016).

Test [1] concerns UVA-irradiated HaCaT cells. Description: LDH release (UVA-induced cell membrane damage). As to conditions: 125, 250, 500 nM 24 hours, then 15 J/cm^2 UVA, 4 hours. The class given is cell-based, human. How it is done:
Under normal physiological condition, a lactate dehydrogenase (LDH) is presented in the cytoplasm. The cell membranes are damaged or disrupted when the cells are attacked by excessive ROS. Accordingly, the intracellular LDH releases into the culture medium. Therefore, a detection amount of LDH release is an indicator of a cell membrane damaged condition. The HaCaT cells are seeded in a 12-well plate with 1×10^5 cells/well and then maintained at 37° C. in the humidified atmosphere of 5% CO2 until the HaCaT cells are adhered in the next day. […] After incubation, the HaCaT cells are washed with PBS three times and resuspended in fresh phenol red-free DMEM supplemented with 10% FBS. Then, the HaCaT cells are exposed to the UVA (15 J/cm^2) for 4 hours. The culture medium is taken from the well, and then centrifuged at 400×g for 5 minutes by using a high speed centrifuge. After the centrifugation, 50 μL of the supernatant is taken and added into the 96-well microplate, and the 50 μL of a substrate mixture is added in each well to act at room temperature for 20 minutes in the dark. Then, 50 μl. of a stopping solution (1N HCl) is added in each well to stop the reaction, and then the absorbance at 490 nm is measured.
(LDH leaks from cells whose membrane has failed.)

Test [2] has as its system UVA-irradiated HaCaT cells. Kind of test: Western blot of apoptosis-related proteins (Caspase-3, Caspase-9, Bax, Bcl-2). It counts as cell-based, human. Conditions: 125-500 nM 24 hours prior to UVA 15 J/cm^2, 4 hours. How it is done: The apoptosis can induce DNA double-strand breaks to generate a DNA fragment, To examine the effect of the ergothioneine on the UVA-induced apoptosis, an apoptotic cell death is measured using a terminal deoxyucleotidyl transferase-meditated dUTP-fluorescein nick end-labeking (TUNEL) assay, and protein expressions of apoptosis-related proteins, Caspase-3, Caspase-9, Bax and Bcl-2, are measured using a Western blot analysis. Therefore, the aforementioned methods in this example can analyze whether pretreating with the ergothioneine improves the UVA-induced apoptosis. […] After incubation, the HaCaT cells are exposed to the UVA (15 J/cm^2), and then incubated for 4 hours. Then, the protein expressions of Caspase-3, Caspase-9, Bax and Bcl-2 are measured using the Western blot analysis. FIG. 6 illustrates the effect of the ergothioneine on the protein expressions of apoptosis-related proteins of the UVA-irradiated HaCaT cells. FIG. 6-(A) represents the Western blot analysis results. FIG. 6-(B) is the quantitative diagram of the protein expressions of Caspase-3 and Caspase-9. FIG. 6-(C) is the quantitative diagram of a Bax/Bcl-2 ratio.
(In general: In western blotting, separated proteins are transferred to a membrane and probed.)

With `C[N+](C)(C)[C@@H](Cc1c[nH]c(=S)[nH]1)C(=O)[O-]` [ergothioneine, 2-mercapto histidine trimethylbetain], the LDH release result in test [1] was “inhibits the LDH release in a dose-dependent manner”. Besides, in test [2], the Bax/Bcl-2 ratio entry is “significantly reduced”, the “protein expression of Caspase-3” value is reported as “significantly reduced” and the “protein expression of Caspase-9” value is listed as “significantly reduced”.
